Data published in patent publication US20030064989A1, “Inhibitors of cell proliferation, angiogenesis, fertility, and muscle contraction” (priority 2001, published 2003).
Where “and” joins values, the source holds several entries; their conditions need not be identical. Equal entries are not always repeated. Entries after “also recorded” stand apart in the source; their conditions may differ.

Experiments:
[1] = system: chick chorioallantoic membrane (CAM); experiment: Chick chorioallantoic membrane (CAM) assay, CAM area; conditions: for LOAEL / LOAEL (Molar) / NOAEL (Molar) / LOAEL (mg/ml): day 5-6 CAMs, 24 hours; for minimal effective concentration: Gallus gallus, 24 h, read-out: lowest effective dose on CAM area; for effect on CAM area: 5e-11M
Procedure: The chick chorioallantoic membrane (CAM) assay is perhaps the most widely used assay for screening anti-angiogenic or growth inhibitory compounds (see, e.g. Ribatti et al., Int. J. Dev. Biol. 40:1189-1197 (1996)). Cell proliferation and angiogenesis were evaluated by measuring CAM area and BrdU labeling using the CAM assay as modified by Melkonian et al., J. Exp. Zool. (2001), in review. Fertilized chicken eggs were purchased from Hy-Line International (Lakeview, CA), then incubated at 37° C. at 85-90% relative humidity throughout the experiment. Experiments were done to evaluate cell proliferation, angiogenesis, and vascularization in CAMs between days 5 and 6 after fertilization. Albumin (2.5-3.0 cc) was removed on the fourth day after fertilization to drop the embryo away from the shell. Windows were then made in shells, and sealed with transparent tape to allow subsequent access to the CAM for experimental treatment. 200 μl of either EBSS-H or different concentrations of pure chemicals were added to the surface of each CAM at 10 AM on the fifth day after fertilization. A sham control group in which the window was opened and resealed was also included in each experiment. In all cases, the following five concentrations of test reagents were used, 5×10^−3 M, 5×10^−5 M, 5×10^−7M, 5×10^−9 M and 5×10^−11M. For 2-ethylpyridine and 3-ethylpyridine additional concentrations of 5×10^−12M, 5×10^−13M, 5×10^−14 M and 5×10^−15 M were used. For nicotine and nornicotine, concentrations of 5×10^−4 M, 5×10^−6 M, 5×10^−8 M and 5×10^−10 M were also used. Development was terminated at 10 AM on the sixth day after fertilization by fixing the embryo and the CAM with 3% glutaraldehyde in 0.1M cacodylate buffer (pH 7.4) for 2 hours at room temperature. A small volume of fixative was also injected under the CAM. The CAMs were later dissected from eggs, post-fixed in the same fixative for 24 hours at room temperature, then thoroughly rinsed in PBS.
At least 6 CAMs were used in each control and experimental group. Parameters which measure aspects of cell proliferation, angiogenesis, and vacularization were quantified for each CAM. These parameters include: (1) for cell proliferation—CAM area, BrdU labeling of nuclei; (2) for angiogenesis—blood vessel pattern, blood vessel area, blood vessel diameter, and blood vessel branching; (3) for vascularization—density of angiogenic clusters. The area of each CAM was measured by placing the CAMs in PBS in a Petri dish under a Wild-M5A dissecting microscope (Max ERB instrument Co., Burbank, CA), then measuring the longest and shortest length of each CAM with a ruler to the precision of 0.5 mm. The data were recorded into Excel spreadsheet. CAM area was calculated using the formula:
where A=longest length, B=longest width, π=3.14.
Means and standard deviations were then calculated for each control and treatment group. The treated group means were used to compare with control means to determine the effect of each chemical on CAM growth.
On the fifth day after fertilization, either EBSS-H or different concentrations of test chemicals were added to each CAM. A sham group in which windows were opened and resealed without adding any solution was also included to determine if the vehicle EBSS-H had any effect on CAM area. Development was terminated 24 hours later, and CAMs were measured as described in Materials and Methods.

nuclei of day 5 CAMs = experiment: BrdU labeling of CAMs (cell proliferation); format: in vivo, chick
Procedure: Eight hours after the initial EBSS-H or chemical treatment on day 5 after fertilization, […] BrdU (Sigma, St. Louis, Mo.) were added to each CAM surface. Another 55 minutes after the BrdU treatment, the development of the CAMs was terminated by transferring the embryos and CAMs into a −20° C. freezer for 2-3 minutes. Embryos and CAMs were then fixed at −20° C. in 70% ethanol containing 50 mM glycine buffer, pH 2.0 for 1.5 hours. CAMs were then dissected out of the eggs, washed in PBS and dehydrated in 30%, 50%, 75%, 90% and 100% ethanol series. Dehydrated CAM tissues were further processed in Hypercenter II Tissue Processing System (Shandon Inc., Pittsburgh, Pa.), then embedded in paraffin using Sakura Tissue-TE (Shandon Inc., Pittsburgh, Pa.). Paraffin Sections were cut using a S20 Spencer microtome (Labequip, American Optical Corp., Ontario, Canada), and were mounted on Superfrost/plus glass slides (Fisher Scientific, Tustin, CA). Sections were deparaffinized with 3 changes of Hemo-De for 15 minutes each, 2 changes of 100% ethanol for 5 minutes each, then rehydrated in PBS. […] Images were recorded using a Spot digital camera-SP401-115 (Diagnostic Instruments, Sterling Heights, MI) and processed and montaged using Adobe Photoshop (San Jose, Calif.). […]

[2] = system: blood vessels of the chick chorioallantoic membrane (CAM); experiment: CAM angiogenesis: blood vessel area, pattern formation, capillary plexus; format: in vivo
Procedure: (2001), in review. […] The surface of each CAM was further dissected out of the CAM pocket in PBS. CAMs were then flattened with 18×18-1.5 Fisherbrand microscope cover slip (Fisher Scientific, Pittsburgh, Pa.) in Fisherbrand 60×15 mm standard sterile polystyrene petri dish (Fisher Scientific, Pittsburgh, Pa.). […] Pattern formation was evaluated blindly using video image montages projected on a computer monitor. Images were ranked on a scale of 0 to 3, with 0 being similar to control CAMs and 3 being most dissimilar from controls. The area occupied by major blood vessels in control and chemically treated CAMs was measured in digitalized images projected on a computer monitor using NIH image. Boxes (2.4 c 1.98 mm) were placed in each corner of each CAM image, which had been processed to visualize the major blood vessels. The percentage of pixels occupied by the blood vessels was quantified in each box and an average percentage was computed from the four boxes measured from each CAM. These values were used to compute means and standard deviations for each group. Blood vessel diameter and branching were measured in images projected on a computer monitor using NIH Image software. Density of angiogenic clusters was evaluated in toluidine blue stained histological sections that were digitalized and projected on a computer monitor.

## Cc1cccnc1C [2,3-dimethylpyridine]
[1]; CAM area
  LOAEL: 0.00536 mg/mL
  LOAEL (Molar): 50 µM
  NOAEL (Molar): 500 nM
[1]
  minimal effective concentration: 50 µM and 5.36 µg/mL

## Cc1cc(C)nc(C)c1 [2,4,6-trimethylpyridine]
[1]; CAM area
  LOAEL: 0.0061 mg/mL
  LOAEL (Molar): 50 µM
  NOAEL (Molar): 500 nM
[1]
  minimal effective concentration: 50 µM and 6.1 µg/mL

## Cc1ccnc(C)c1 [2,4-dimethylpyridine]
[1]; CAM area
  LOAEL: 0.00536 mg/mL
  LOAEL (Molar): 50 µM
  NOAEL (Molar): 500 nM
[1]
  minimal effective concentration: 50 µM and 5.36 µg/mL

## CCc1ccccn1 [2-ethylpyridine]
[1]; 5e-3M
  CAM size compared with control groups: significantly smaller
[1]; CAM area
  lowest effective dose lower than that of the single pyridine ring: 10 million
  LOAEL: 5.36e-10 mg/mL
  LOAEL (Molar): 5e-06 µM
  NOAEL (Molar): 0.0005 nM
[1]
  minimal effective concentration: 5e-06 µM and 5.4e-07 µg/mL
[1]; dose not stated
  CAM growth / size compared with control: significantly inhibited
Nuclei of day 5 CAMs; 5e-11, eight hours
  incorporation of BrdU into nuclei: significantly less incorporation of BrdU
[2]; 5e-3M
  major blood vessel pattern formation: disturbance in major blood vessel pattern formation
[2]; all doses tested
  dendritic branching pattern: disrupted
[2]; in vivo
  formation of the capillary plexus: significantly inhibited; also recorded: failed to form
[2]; vs EBSS control, exposed day 5, evaluated day 6
  dose at which blood vessel area was significantly decreased: 50 pM

## Cc1ccccn1 [2-methylpyridine]
[1]; CAM area
  LOAEL (Molar): 0.005 µM
  LOAEL (mg/ml): 4.66e−7 mg/lml mg/ml
  NOAEL (Molar): 0.05 nM
[1]
  minimal effective concentration: 0.005 µM and 0.000466 µg/mL
Nuclei of day 5 CAMs; 5e-9, eight hours
  incorporation of BrdU into nuclei: significantly less incorporation of BrdU

## Cc1cccnc1 [3-methylpyridine]
[1]; CAM area
  LOAEL (Molar): 0.005 µM
  LOAEL (mg/ml): 4.66e−7 mg/lml mg/ml
  NOAEL (Molar): 0.05 nM
[1]
  minimal effective concentration: 0.005 µM and 0.000466 µg/mL

## c1cc(-c2ccncc2)ccn1 [4,4-bipyridine]
[1]; CAM area
  LOAEL: 0.0781 mg/mL
  LOAEL (Molar): 500 µM
  NOAEL (Molar): 50000 nM
[1]
  minimal effective concentration: 500 µM and 78.1 µg/mL

## C=Cc1ccncc1 [4-ethenylpyridine]
[1]; CAM area
  LOAEL: 0.00526 mg/mL
  LOAEL (Molar): 50 µM
  NOAEL (Molar): 500 nM
[1]
  minimal effective concentration: 50 µM and 5.26 µg/mL

## c1ccncc1 [Pyridine, pyridine, reference compound]
[1]; CAM area
  LOAEL: 0.00396 mg/mL
  LOAEL (Molar): 50 µM
  NOAEL (Molar): 500 nM
[1]
  minimal effective concentration: 50 µM and 3.96 µg/mL

## Cn1cccc1-c1cccnc1 [b-nicotyrine, 3-(1-methylpyrrol-2-yl)pyridine]
[1]
  effect on CAM area: slight increase
  minimal effective concentration: 0.5 µM and 0.079 µg/mL
[1]; CAM area
  LOAEL: 7.9e-05 mg/mL
  LOAEL (Molar): 0.5 µM
  NOAEL (Molar): 5 nM

## CN1CCCC1c1cccnc1 (stereo not drawn) [nicotine, 1-methyl-2-(3-pyridyl)pyrrolidine]
[1]
  effect on CAM area: significant stimulatory effect
  minimal effective concentration: 500 µM and 81 µg/mL
[1]; CAM area
  LOAEL: 0.081 mg/mL
  LOAEL (Molar): 500 µM
  NOAEL (Molar): 50000 nM

## c1cncc([C@@H]2CCCN2)c1 [nornicotine, 3-(1-pyrrolidin-2-yl)pyridine]
[1]
  effect on CAM area: significant stimulatory effect
  minimal effective concentration: 50 µM and 7.4 µg/mL
[1]; CAM area
  LOAEL: 0.0074 mg/mL
  LOAEL (Molar): 50 µM
  NOAEL (Molar): 5000 nM
